These results are taken from the supplement of paper PMC11208160.

This data set in a line: recombinant UMI read abundance after kanamycin selection (control-corrected) (log10(CPM+1)); higher = more efficient recombination; extreme values may be limits of the assay; sequences stand for … in AGTGCAGAGAAAATCGGCCAGTTTTCTCTGCCTGCAGTCCGCATGCCGTGGGACCCCTTGGGTTCTAACCTGTTGCCTAGATTTATGCAGCGGACTGCCTTTCTCCCAAAGTGATAAACCGG…AGGTTGGTTTCACT; site = the 11-nt donor. The procedure, abridged:
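After plating on IPTG (0.07 mM) plus kanamycin, or unselected, in two replicates, recombinant UMIs were PCR-amplified across the donor–target junction and sequenced. The cells were Escherichia coli co-electroporated with a UMI-tagged donor and donor-binding-loop pair library and a target plasmid with a fixed target and T7-inducible IS621 bridge recombinase. Values are log10(CPM+1), with CPM averaged over replicates and scaled by control-derived factors.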
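Note: IS621 bridge recombinase in Escherichia coli cells against a fixed T5 target plasmid.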

Take “TGTTCGCCATGGACCGGTTTTCCCGGTAATCCGTATTTGTA (site TGTTCTCCTTA)”: the “recombinant UMI read abundance (log10)” value was found to be 0.
Then “TGTTTCCCATGGACCGGTTTTCCCGGTAATCCGTATTTGTA (site TGTTACCCTTA)”, with 0.139.
Then “TGTTTCCCATGGACCGGTTTTCCCGGTAATCCGTATTTGTA (site TGTTCCCCTTA)”, with 0.0148; and “TGTTTCCCATGGACCGGTTTTCCCGGTAATCCGTATTTGTA (site TGTTGCCCTTA)”, with 0.0291; and “TGTTTCCCATGGACCGGTTTTCCCGGTAATCCGTATTTGTA (site TGTTTCCCTTA)”, with 0.152.
Then “TGTTTGGCATGGACCGGTTTTCCCGGTAATCCGTATTTGCT (site AGTTTGGCTAG)”, with 0; and “TGTTTGGCATGGACCGGTTTTCCCGGTAATCCGTATTTGCT (site CGTTTGGCTAG)”, with 0.00328.
Take “TGTTTGGCATGGACCGGTTTTCCCGGTAATCCGTATTTGCT (site GGTTTGGCTAG)”: the “recombinant UMI read abundance (log10)” value is 0.0409.
Turning to “TGTTTGGCATGGACCGGTTTTCCCGGTAATCCGTATTTGCT (site TGTTTGGCTAG)”, the “recombinant UMI read abundance (log10)” value turned out to be 0.
Then “TTAATTTCATGGACCGGTTTTCCCGGTAATCCGTATTTGAA (site TTAATTTCTTT)”, with 0; and “TTACCTGCATGGACCGGTTTTCCCGGTAATCCGTATTTGTG (site TTAACTGCTCA)”, with 0.013.
Next, “TTACCTGCATGGACCGGTTTTCCCGGTAATCCGTATTTGTG (site TTACCTGCTCA)”: 0.0157; “TTACCTGCATGGACCGGTTTTCCCGGTAATCCGTATTTGTG (site TTAGCTGCTCA)”: 0.00404.
Next, “TTACCTGCATGGACCGGTTTTCCCGGTAATCCGTATTTGTG (site TTATCTGCTCA)”: 0.00944; “TTACGTCCATGGACCGGTTTTCCCGGTAATCCGTATTTGGT (site TTACGTCCTAC)”: 0.02; “TTACTGACATGGACCGGTTTTCCCGGTAATCCGTATTTGCC (site GGTTATCCTTC)”: 0.00491.
Consider “TTAGAGACATGGACCGGTTTTCCCGGTAATCCGTATTTGCG (site TAAGAGACTCG)”, for which the “recombinant UMI read abundance (log10)” value is 0.923.
Next, “TTAGAGACATGGACCGGTTTTCCCGGTAATCCGTATTTGCG (site TCAGAGACTCG)”: 1.03; “TTAGAGACATGGACCGGTTTTCCCGGTAATCCGTATTTGCG (site TGAGAGACTCG)”: 0.02.
Take “TTAGAGACATGGACCGGTTTTCCCGGTAATCCGTATTTGCG (site TTAGAGACTCG)”: the “recombinant UMI read abundance (log10)” value was 2.16.
Next, “TTAGATGCATGGACCGGTTTTCCCGGTAATCCGTATTTGCC (site TTAGATGCTGG)”: 1.9; “TTAGCAGCATGGACCGGTTTTCCCGGTAATCCGTATTTGCC (site TTAGCAGCTGG)”: 2.61.
Take “TTAGCAGCATGGACCGGTTTTCCCGGTAATCCGTATTTGTG (site TTAGCAGCTCA)”: the “recombinant UMI read abundance (log10)” value was found to be 0.707.
Next, “TTAGCAGCATGGACCGGTTTTCCCGGTAATCCGTATTTGTG (site TTAGCCGCTCA)”: 0.0121; “TTAGCAGCATGGACCGGTTTTCCCGGTAATCCGTATTTGTG (site TTAGCGGCTCA)”: 0.0104.
Then “TTAGCAGCATGGACCGGTTTTCCCGGTAATCCGTATTTGTG (site TTAGCTGCTCA)”, with 0.00315; and “TTAGCGGCATGGACCGGTTTTCCCGGTAATCCGTATTTGCT (site TTAGCGGCTAG)”, with 1.71.
Then “TTAGCGGCATGGACCGGTTTTCCCGGTAATCCGTATTTGCT (site TTCGCGGCTAG)”, with 0.
Turning to “TTAGCGGCATGGACCGGTTTTCCCGGTAATCCGTATTTGCT (site TTGGCGGCTAG)”, the “recombinant UMI read abundance (log10)” value stood at 0.
